{"source": "patent US6387955B1", "about": "“Enhanced anti-angiogenic activity of permanently charged derivatives of steroid hormones” (Pharmos Corporation, priority 1997, dated 2002)", "key": {"[1]": {"tested_on": "MCF-7 tumors", "experiment": "Growth of MCF-7 tumors implanted in ventral fat pad of nude mice, tumor size by MRI", "assay_type": "in vivo", "conditions": "for change in tumor size relative to day 0 (in words): slow-release pellet s.c. in flank, 25 day time course, MRI", "description": "(§1) Female CD1-nu/nu athymic mice (6 weeks old) were obtained from the Weizmann Institute Department of Animal Services. MCF-7 cells, serially passed as described above, were detached from the culturing flasks with 0.03% EDTA in phosphate buffered saline (PBS) and washed several times in normal saline. Cells (10^7/innoculum) were then injected into the ventral fat pad at the level of the breast. Coincident with cell introduction, a slow-release pellet of estradiol (0.72 mg/pellet, 45-day release profile; Innovative Research, Sarasota, Fla.) was implanted subcutaneously in the flank of the animal. Mice were anesthetized with ketamine/Rompun (i.p.) for the surgical procedures. […] At this point, animals were randomized into four study groups. In the first, the estrogen pellet was removed and replaced with a slow-release TMI-laden pellet (6.3 mg, 45-day release) (n=5). In the second group, the estrogen pellet was removed and replaced with a tamoxifen pellet (n=7). The third group was treated with a blank (placebo) pellet (n=5), while the fourth group was reimplanted with an estradiol pellet (n=4). TMI and placebo-treated animals were imaged (under ketamine/Rompun anesthesia) either immediately before pellet exchange (day 0) or at day 3, 6, 12 and 25 after pellet exchange.\nMRI images were recorded with a Bruker 4.7 (tesla)/30 Biospec spectrometer (Bruker Medizintechnik, Rheinstetten, Germany). 1H Spin-echo images were recorded at 200.12 MHz using a custom-made 4.5 cm rf coil with an image data matrix of 256×128 pixels. Pilot scans of the tumors were completed using a fast transverse multi-slice spin-echo sequence (giving T1-weighted spectra; inter-echo time (TE)=16 msec, recovery time (TR)=500 msec) followed by T2-weighted sequences in which axial slices perpendicular to the spine (i.e., a coronal orientation) were recorded. In the latter case, spin-echo images were obtained using a 4 cm field of view, 1 mm slice thickness, 1.2 mm slice-to-slice distance and a four-sequence average. The TE and TR were optimized to provide the best image contrast generating values of 80 and 3200 msec, respectively. This gave a total imaging time of approximately 30 min. […] Tumor size was calculated using a slice-to-slice reconstruction in which the slice surface area was obtained from histograms provided by the resident Bruker software package using the following relationship: […]\nwhere XSA is the cross-sectional area of an internal slice, ES is the cross-sectional area of an edge slice, l is the slice thickness and ssd is the distance from the middle of one slice to the middle of the next. For image analysis, the average pixel intensity of viable portions of MCF-7 tumors was determined from a central tumor slice using histograms generated by the dedicated Bruker software package. […]"}, "[2]": {"tested_on": "MCF-7 human breast cancer", "conditions": "MCF-7 human breast cancer implanted in nude mice; cited from earlier work"}, "[3]": {"tested_on": "gelatinase A (MMP-2), 72 kDa", "experiment": "Collagenolytic activity by zymography in human fibrosarcoma cell supernatant, gelatinase A", "assay_type": "cell-based", "description": "(§2) HT-1080 cells (CCL 121), derived from a metastatic lesion of a human fibrosarcoma and primary bovine endothelial cells were obtained from the American Type Culture collection (Rockville, Md.). Cells were maintained under an atmosphere of 5% CO2, in Dulbecco's Minimal Essential Medium (DMEM) supplemented with 10% fetal calf serum, glutamine, vitamins, non-essential amino acids and antibiotics (Biological Industries, Kibbutz Beth HaEmek, Israel).\n(§3) Sub-confluent cell cultures were incubated for 6 to 24 hours in serum-free DMEM, either with or without various concentrations of TMI or tamoxifen, and the resultant supernatant was analyzed for collagenolytic activity. The collagenolytic activity was determined using a gelatin-impregnated (1 mg/ml, Difco, Detroit Mich.) SDS-PAGE 8% gel, as previously described, with minor modifications. Briefly, the culture media samples were separated on the substrate-impregnated gels under non-reducing conditions, followed by 30 min of incubation of 2.5% Triton X-100 (BDH, UK). The gels were then incubated for 16 hours at 37° C. in 50 mM TRIS, 0.2 M NaCl, 5 mM CaCl2, 0.02% BRIJ 35 (w/v) at pH 7.6. […] The intensity of the stained bands was then determined using a computerized densitometer (Molecular Dynamics Model 300A). […]"}, "[4]": {"tested_on": "MCF-7 tumors", "experiment": "Tumor necrosis in MCF-7 tumors by T2-weighted MRI", "assay_type": "in vivo, nude mice", "description": "as §1\nMRI images were recorded with a Bruker 4.7 (tesla)/30 Biospec spectrometer (Bruker Medizintechnik, Rheinstetten, Germany). 1H Spin-echo images were recorded at 200.12 MHz using a custom-made 4.5 cm rf coil with an image data matrix of 256×128 pixels. Pilot scans of the tumors were completed using a fast transverse multi-slice spin-echo sequence (giving T1-weighted spectra; inter-echo time (TE)=16 msec, recovery time (TR)=500 msec) followed by T2-weighted sequences in which axial slices perpendicular to the spine (i.e., a coronal orientation) were recorded. In the latter case, spin-echo images were obtained using a 4 cm field of view, 1 mm slice thickness, 1.2 mm slice-to-slice distance and a four-sequence average. The TE and TR were optimized to provide the best image contrast generating values of 80 and 3200 msec, respectively. This gave a total imaging time of approximately 30 min. Under the conditions reported, the in-plane resolution was 155×310 μm. Tumor size was calculated using a slice-to-slice reconstruction in which the slice surface area was obtained from histograms provided by the resident Bruker software package using the following relationship:\nwhere XSA is the cross-sectional area of an internal slice, ES is the cross-sectional area of an edge slice, l is the slice thickness and ssd is the distance from the middle of one slice to the middle of the next. For image analysis, the average pixel intensity of viable portions of MCF-7 tumors was determined from a central tumor slice using histograms generated by the dedicated Bruker software package. […] Fibrosis was defined as those areas manifesting a decrease in pixel intensity of […].\nIn vivo tumor histology was assessed for TMI and placebo-treated tumors using T2-weighted MR images. […] At this time, the area of necrosis was two-fold higher than that observed on day 0 (increasing from an average of 20% to approximately 40%)."}, "[5]": {"tested_on": "gelatinase B (MMP-9), 92 kDa", "experiment": "Collagenolytic activity by zymography in human fibrosarcoma cell supernatant, gelatinase B", "assay_type": "cell-based", "description": "as §2, §3"}, "[6]": {"experiment": "Tolerability in mice", "assay_type": "in vivo"}, "[7]": {"tested_on": "MCF-7 tumor", "experiment": "TBB in the MCF-7 model, daily dosing (preliminary data)", "assay_type": "in vivo, mice", "conditions": "two weeks of daily dosing", "description": "Preliminary data on TBB in the MCF-7 model have also been generated. […] Administration of TBB to MCF-7 tumor-bearing mice caused significant tumor regression that amounted to 32% over two weeks of daily dosing. TMI induced a 20% regression over a 25 day time course."}, "[8]": {"conditions": "doses 0.5 to 20 μM, 6 and 24 hours, result at or up to 20 μM"}, "[9]": {"conditions": "direct comparison, human fibrosarcoma cells"}}}
{"compound": "C[C@]12CC[C@@H]3c4ccc(O)cc4CC[C@H]3[C@@H]1CC[C@@H]2O", "note": "[estrogen, estradiol]", "values": [{"measurement": "change in tumor size relative to day 0 (in words)", "setting": "[1]", "value": "more than doubled in size"}]}
{"compound": "CC/C(=C(\\c1ccccc1)c1ccc(OCCN(C)C)cc1)c1ccccc1", "note": "[tamoxifen, reference compound]", "values": [{"measurement": "effect on tumor growth", "setting": "[2]", "value": "merely slowed tumor growth"}, {"measurement": "inhibition of gelatinase A (MMP-2) collagenolytic activity", "setting": "[3]; [8]", "value": "no significant inhibitory activity"}, {"measurement": "maximum extent of necrosis", "setting": "[4]; preliminary comparison of TMI and tamoxifen", "value": 50, "unit": "%"}, {"measurement": "onset of tumor necrosis", "setting": "[4]; sampling day after pellet exchange", "value": "≤ 3", "unit": "days"}, {"measurement": "tolerance of tumors to the drug and regrowth over time", "setting": "[1]; MCF-7 tumors in nude mice", "value": "became tolerant to the effects of the drug and began to regrow over time"}, {"measurement": "change in tumor size relative to day 0 (in words)", "setting": "[1]", "value": "tumoristatic"}, {"measurement": "inhibition of gelatinase B (MMP-9) collagenolytic activity", "setting": "[5]; [8]", "value": "no significant inhibitory activity"}]}
{"compound": "Tamoxifen benzyl bromide [TBB]", "values": [{"measurement": "potency relative to TMI as inhibitor of 72 kDa (gelatinase A, MMP-2) collagenase", "setting": "[3]; [9]", "value": "more potent than TMI"}, {"measurement": "adverse effects", "setting": "[6]; doses as high as 10 mg/Kg given daily over a two week time course", "value": "no adverse effects"}, {"measurement": "tolerability", "setting": "[6]; mice", "value": "well tolerated"}, {"measurement": "potency relative to TMI as inhibitor of 92 kDa (gelatinase B, MMP-9) collagenase", "setting": "[5]; [9]", "value": "more potent than TMI"}, {"measurement": "tumor regression", "setting": "[7]", "value": 32, "unit": "%"}]}
